Reference: patent US11180462B2, “Microbiocidal oxadiazole derivatives” (SYNGENTA PARTICIPATIONS AG, priority 2015, dated 2021)

Legend:
[1] = test system: Puccinia recondita f. Sp. Tritici; assay: Fungicidal activity against Puccinia recondita f. sp. tritici / wheat / leaf disc preventative (brown rust); format: in vivo; details: foliar, 200 ppm in the applied formulation, wheat leaf segments, preventative, compared to untreated control leaf disks, read-out: disease control
Outline: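 Compound application precedes infection: segments of wheat cv. Kanzler, sprayed at 200 ppm, are inoculated with a spore suspension after 1 day. Incubation is at 19° C. with 75% relative humidity and 12 h light/12 h darkness, and control versus untreated leaves is rated 7 to 9 days post-application.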

[2] = test system: Puccinia recondita f. Sp. Tritici; assay: Fungicidal activity against Puccinia recondita f. sp. tritici / wheat / leaf disc curative (brown rust); format: in vivo; details: foliar, 24 h, 200 ppm in the applied formulation, wheat leaf segments, curative (applied 1 day after inoculation), compared to untreated control leaf disks, read-out: disease control
Outline: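 Segments of wheat cv. Kanzler were laid on agar and inoculated with a spore suspension of the rust, then held in darkness at 19° C and 75% relative humidity. One day later the water-diluted formulated compound was applied, with incubation continued under a 12 h light/dark cycle.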

[3] = test system: Glomerella lagenarium (Colletotrichum lagenarium); assay: Fungicidal activity against Glomerella lagenarium (Colletotrichum lagenarium) liquid culture / cucumber / preventative (anthracnose); format: cell-based; details: Colletotrichum orbiculare; 20 ppm in the applied formulation; liquid culture (PDB), growth inhibition measured photometrically after 3 to 4 days; compared to untreated control; read-out: disease control
Outline: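 Photometric read-out of fungal growth after 2–7 days, expressed as percent antifungal activity versus untreated check. Cryo-stored conidia in PDB; compound at 20 ppm; dark, 24 °C, 96% RH.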

CCN(Cc1ccc(-c2noc(C(F)(F)F)n2)cc1)C(=O)CCl [Compound 1.502, 2-chloro-N-ethyl-N-[[4-[5-(trifluoromethyl)-1,2,4-oxadiazol-3-yl]phenyl]methyl]-acetamide]
≥ 80%: pest or weed control at 200 ppm [1] | pest or weed control at 200 ppm [2] | inhibition of growth at 20 ppm [3]

C#CC(=O)N(CCOC)Cc1ccc(-c2noc(C(F)(F)F)n2)cc1 [Compound 1.347, N-(2-methoxyethyl)-N-[[4-[5-(trifluoromethyl)-1,2,4-oxadiazol-3-yl]phenyl]methyl]prop-2-ynamide]
≥ 80%: pest or weed control at 200 ppm [1] | pest or weed control at 200 ppm [2] | inhibition of growth at 20 ppm [3]

CON(Cc1ccc(-c2noc(C(F)(F)F)n2)cc1)C(=O)N(C)C1CCC1 [Compound 3.65, 1-cyclobutyl-3-methoxy-1-methyl-3-[[4-[5-(trifluoromethyl)-1,2,4-oxadiazol-3-yl]phenyl]methyl]urea]
≥ 80%: pest or weed control at 200 ppm [1] | pest or weed control at 200 ppm [2] | inhibition of growth at 20 ppm [3]

COCCCC(=O)N(Cc1ccc(-c2noc(C(F)(F)F)n2)cc1)Cc1ccco1 [Compound 1.467, N-(2-furylmethyl)-4-methoxy-N-[[4-[5-(trifluoromethyl)-1,2,4-oxadiazol-3-yl]phenyl]methyl]-butanamide]
≥ 80%: pest or weed control at 200 ppm [1] | pest or weed control at 200 ppm [2] | inhibition of growth at 20 ppm [3]

CCC(C)N(Cc1ccc(-c2noc(C(F)(F)F)n2)cc1)C(=O)C1CC1(F)F (stereo not drawn) [Compound 1.371, 2,2-difluoro-N-sec-butyl-N-[[4-[5-(trifluoromethyl)-1,2,4-oxadiazol-3-yl]phenyl]methyl]-cyclopropane-carboxamide]
≥ 80%: pest or weed control at 200 ppm [1] | pest or weed control at 200 ppm [2] | inhibition of growth at 20 ppm [3]

COCCN(Cc1ccc(-c2noc(C(F)(F)F)n2)cc1)C(=O)C1CSC1 [Compound 1.334]
≥ 80%: pest or weed control at 200 ppm [1] | pest or weed control at 200 ppm [2] | inhibition of growth at 20 ppm [3]

COC(=O)N(Cc1ccc(-c2noc(C(F)(F)F)n2)cc1)CC(F)(F)F [Compound 2.22, methyl N-(2,2,2-trifluoroethyl)-N-[[4-[5-(trifluoromethyl)-1,2,4-oxadiazol-3-yl]phenyl]methyl]-carbamate]
≥ 80%: pest or weed control at 200 ppm [1] | pest or weed control at 200 ppm [2] | inhibition of growth at 20 ppm [3]

CCC(C)N(Cc1ccc(-c2noc(C(F)(F)F)n2)cc1)C(=O)C1CSC1 (stereo not drawn) [Compound 1.378, N-sec-butyl-N-[[4-[5-(trifluoromethyl)-1,2,4-oxadiazol-3-yl]phenyl]methyl]-thietane-3-carboxamide]
≥ 80%: pest or weed control at 200 ppm [1] | pest or weed control at 200 ppm [2] | inhibition of growth at 20 ppm [3]

C#CCN(C(=O)N(C)Cc1ccc(-c2noc(C(F)(F)F)n2)cc1)C1CC1 [Compound 3.80, 1-cyclopropyl-3-methyl-1-prop-2-ynyl-3-[[4-[5-(trifluoromethyl)-1,2,4-oxadiazol-3-yl]phenyl]methyl]urea]
≥ 80%: pest or weed control at 200 ppm [1] | pest or weed control at 200 ppm [2] | inhibition of growth at 20 ppm [3]

CON(C(=O)COC(C)=O)C(C)c1ccc(-c2noc(C(F)(F)F)n2)cc1 (stereo not drawn) [Compound 1.270, [2-[methoxy-[1-[4-[5-(trifluoromethyl)-1,2,4-oxadiazol-3-yl]phenyl]ethyl]-amino]-2-oxo-ethyl] acetate]
≥ 80%: pest or weed control at 200 ppm [1] | pest or weed control at 200 ppm [2] | inhibition of growth at 20 ppm [3]

COCCC(=O)N(OC)C(C)c1ccc(-c2noc(C(F)(F)F)n2)cc1 (stereo not drawn) [Compound 1.260, N,3-dimethoxy-N-[1-[4-[5-(trifluoromethyl)-1,2,4-oxadiazol-3-yl]phenyl]ethyl]-propanamide]
≥ 80%: pest or weed control at 200 ppm [1] | pest or weed control at 200 ppm [2] | inhibition of growth at 20 ppm [3]

CON(Cc1ccc(-c2noc(C(F)(F)F)n2)cc1)C(=O)COC(F)F [Compound 1.785, 2-(difuoromethoxy)-N-methoxy-N-[[4-[5-(trifluoromethyl)-1,2,4-oxadiazol-3-yl]phenyl]methyl]-acetamide]
≥ 80%: pest or weed control at 200 ppm [1] | pest or weed control at 200 ppm [2] | inhibition of growth at 20 ppm [3]

CC1CC1C(=O)N(Cc1ccc(-c2noc(C(F)(F)F)n2)cc1)Cc1ccco1 (stereo not drawn) [Compound 1.460, N-(2-furylmethyl)-2-methyl-N-[[4-[5-(trifluoromethyl)-1,2,4-oxadiazol-3-yl]phenyl]methyl]-cyclopropane-carboxamide]
≥ 80%: pest or weed control at 200 ppm [1] | pest or weed control at 200 ppm [2] | inhibition of growth at 20 ppm [3]

CCC(C)N(Cc1ccc(-c2noc(C(F)(F)F)n2)cc1)C(=O)C1CC1 (stereo not drawn) [Compound 1.406, N-sec-butyl-N-[[4-[5-(trifluoromethyl)-1,2,4-oxadiazol-3-yl]phenyl]methyl]-cyclopropane-carboxamide]
≥ 80%: pest or weed control at 200 ppm [1] | pest or weed control at 200 ppm [2] | inhibition of growth at 20 ppm [3]

COCCN(C)C(=O)N(Cc1ccc(-c2noc(C(F)(F)F)n2)cc1)OC [Compound 3.63, 1-methoxy-3-(2-methoxyethyl)-3-methyl-1-[[4-[5-(trifluoromethyl)-1,2,4-oxadiazol-3-yl]phenyl]methyl]urea]
≥ 80%: pest or weed control at 200 ppm [1] | pest or weed control at 200 ppm [2] | inhibition of growth at 20 ppm [3]

CN(Cc1ccc(-c2noc(C(F)(F)F)n2)cc1)C(=O)N(C)C1CCC1 [Compound 3.82, 1-cyclobutyl-1,3-dimethyl-3-[[4-[5-(trifluoromethyl)-1,2,4-oxadiazol-3-yl]phenyl]methyl]urea]
≥ 80%: pest or weed control at 200 ppm [1] | pest or weed control at 200 ppm [2] | inhibition of growth at 20 ppm [3]

O=C(C1CCC1)N(Cc1ccc(-c2noc(C(F)(F)F)n2)cc1)Cc1ccco1 [Compound 1.458, N-(2-furylmethyl)-N-[[4-[5-(trifluoromethyl)-1,2,4-oxadiazol-3-yl]phenyl]methyl]-cyclobutane-carboxamide]
≥ 80%: pest or weed control at 200 ppm [1] | pest or weed control at 200 ppm [2] | inhibition of growth at 20 ppm [3]

CON(C(=O)C1CC1)C(C)c1ccc(-c2noc(C(F)(F)F)n2)cc1 (stereo not drawn) [Compound 1.279, N-methoxy-N-[1-[4-[5-(trifluoromethyl)-1,2,4-oxadiazol-3-yl]phenyl]ethyl]-cyclopropane-carboxamide]
≥ 80%: pest or weed control at 200 ppm [1] | pest or weed control at 200 ppm [2] | inhibition of growth at 20 ppm [3]

C#CCN(C)C(=O)N(C)Cc1ccc(-c2noc(C(F)(F)F)n2)cc1 [Compound 3.77, 1,3-dimethyl-1-prop-2-ynyl-3-[[4-[5-(trifluoromethyl)-1,2,4-oxadiazol-3-yl]phenyl]methyl]urea]
≥ 80%: pest or weed control at 200 ppm [1] | pest or weed control at 200 ppm [2] | inhibition of growth at 20 ppm [3]

CON(Cc1ccc(-c2noc(C(F)(F)F)n2)cc1)C(=O)NCC(C)(C)C [Compound 3.10, 3-(2,2-dimethylpropyl)-1-methoxy-1-[[4-[5-(trifluoromethyl)-1,2,4-oxadiazol-3-yl]phenyl]methyl]urea]
≥ 80%: pest or weed control at 200 ppm [1] | pest or weed control at 200 ppm [2] | inhibition of growth at 20 ppm [3]

C#CCOc1ccc(C(=O)N(Cc2ccc(-c3noc(C(F)(F)F)n3)cc2)C2CC2)cc1F [Compound 1.129, N-cyclopropyl-3-fluoro-4-prop-2-ynoxy-N-[[4-[5-(trifluoromethyl)-1,2,4-oxadiazol-3-yl]phenyl]methyl]-benzamide]
≥ 80%: pest or weed control at 200 ppm [1] | pest or weed control at 200 ppm [2] | inhibition of growth at 20 ppm [3]

CON(C(=O)C1CSC1)C(C)c1ccc(-c2noc(C(F)(F)F)n2)cc1 (stereo not drawn) [Compound 1.259, N-methoxy-N-[1-[4-[5-(trifluoromethyl)-1,2,4-oxadiazol-3-yl]phenyl]ethyl]-thietane-3-carboxamide]
≥ 80%: pest or weed control at 200 ppm [1] | pest or weed control at 200 ppm [2] | inhibition of growth at 20 ppm [3]

CC(C)C(=O)N(Cc1ccc(-c2noc(C(F)(F)F)n2)cc1)Cc1ccco1 [Compound 1.463, N-(2-furylmethyl)-2-methyl-N-[[4-[5-(trifluoromethyl)-1,2,4-oxadiazol-3-yl]phenyl]methyl]-propanamide]
≥ 80%: pest or weed control at 200 ppm [1] | pest or weed control at 200 ppm [2] | inhibition of growth at 20 ppm [3]

CCN(Cc1ccc(-c2noc(C(F)(F)F)n2)cc1)C(=O)CNC(C)=O [Compound 1.501, 2-acetamido-N-ethyl-N-[[4-[5-(trifluoromethyl)-1,2,4-oxadiazol-3-yl]phenyl]methyl]-acetamide]
≥ 80%: pest or weed control at 200 ppm [1] | pest or weed control at 200 ppm [2] | inhibition of growth at 20 ppm [3]

COC(C)C(=O)N(C)Cc1ccc(-c2noc(C(F)(F)F)n2)cc1 (stereo not drawn) [Compound 1.530, 2-methoxy-N-methyl-N-[[4-[5-(trifluoromethyl)-1,2,4-oxadiazol-3-yl]phenyl]methyl]-propanamide]
≥ 80%: pest or weed control at 200 ppm [1] | pest or weed control at 200 ppm [2] | inhibition of growth at 20 ppm [3]

CCN(Cc1ccc(-c2noc(C(F)(F)F)n2)cc1)C(=O)N(C)C1(COC)CC1 [Compound 3.95, 1-ethyl-3-[1-(methoxymethyl)-cyclopropyl]-3-methyl-1-[[4-[5-(trifluoromethyl)-1,2,4-oxadiazol-3-yl]phenyl]methyl]urea]
≥ 80%: pest or weed control at 200 ppm [1] | pest or weed control at 200 ppm [2] | inhibition of growth at 20 ppm [3]
